We go through one molecule from patent publication US8715735B2, “Stabilised supersaturated solids of lipophilic drugs” (Bayer Intellectual Property GmbH, priority 2004, dated 2014).

The nature of data set [1]: Saturation concentration of estradiol valerate in solvent at room temperature. Type of data set: physicochemical. As for the experimental part:
The resulting liquid is mixed with 1000 g Aeroperl® 300 to give a powder with homogeneously absorbed liquid. 24 mg of the described stabilised supersaturated formulation contains 1 mg estradiol valerate. […] The resulting liquid is mixed with 1667 g Aeroperl® 300 to give a powder with homogeneously absorbed liquid. 67 mg of the described stabilised supersaturated formulation contains 1 mg estradiol valerate. […] The resulting liquid is mixed with 1000 g Aeroperl® 300 to give a powder with homogeneously absorbed liquid. 44 mg of the described stabilised supersaturated formulation contains 1 mg estradiol valerate.

A short description of data set [2]: In-vitro dissolution test, USP XXVIII paddle apparatus 2, 0.4% aqueous sodium dodecyl sulfate. The following applies: approx. 1 mg estradiol valerate tested, 1000 mL 0.4% SDS, 37° C., 75 rpm. Type of data set: physicochemical. The method, then: Formulations according to the examples 1 to 4 were investigated in an in-vitro dissolution test according to USP XXVIII Paddle apparatus 2 using 1000 mL of an 0.4% aqueous solution of sodium dodecyl sulfate as dissolution medium to ensure sink condition (37° C., 75 rpm). The amount of formulations to be tested was selected so that the composition contains approx. 1 mg of estradiol valerate. As reference, 1 mg unformulated estradiol valerate was investigated.

With `CCCCC(=O)O[C@H]1CC[C@H]2[C@@H]3CCc4cc(O)ccc4[C@H]3CC[C@]12C` [estradiol valerate], the saturation concentration entry in data set [1] (in medium chain triglycerides (MCT) at room temperature) is “approx. 27 g/L”; in data set [1] (in peanut oil at room temperature), “approx. 30 g/L”; in data set [1] (in polyethylene glycol (PEG) 400 at room temperature), “approx. 50 g/L”. In addition, the “Release estradiol valerate, 3 min” value in data set [2] (3 min) is 0.34 mg. For the same molecule, in data set [2] (6 min), the “Release estradiol valerate, 6 min” value is listed as 0.41 mg. The “Release estradiol valerate, 10 min” value in data set [2] (10 min) was 0.47 mg. In addition, in data set [2] (15 min), the “Release estradiol valerate, 15 min” value worked out at 0.67 mg. Further, the “Release estradiol valerate, 30 min” value in data set [2] (30 min) is listed as 0.76 mg.
